≈ marks a conversion by molar mass, not a printed value. Read-outs that look alike come from different tables or passages of the source.
Experiments:
E. coli W3110 = test: MIC by broth microdilution; type: cell-based, Escherichia coli; settings: for antimicrobial activity: relative to parent compound
Procedure: (§1) MIC was determined by broth microdilution. Single-colony cultures were grown to exponential phase (OD600 of 0.5) aerobically at 37 °C. In case of strains from the Keio collection, 50 µg ml^−1 kanamycin was supplemented to the media to ascertain a homogeneous population. The bacterial suspensions were diluted 100-fold in CAMHB and 50 µl was added to a twofold serial dilution series of test compounds (50 µl per well) in polypropylene 96-well microtitre plates to reach a volume of 100 µl. The plates were sealed with breathable membranes and incubated overnight at 37 °C with constant shaking (600 r.p.m.).

K. pneumoniae ATCC 29665 = test: MIC by broth microdilution; type: cell-based, Klebsiella pneumoniae; settings: read-out: MIC K. pneumoniae ATCC 29665
Procedure: as §1

E. coli BW25113 = test: Bacterial cytological profiling (BCP); type: cell-based, Escherichia coli; settings: BCP; for DIC angularity: 2 h, AMP 12.5, RIF 12.5, TET 6.25, CIP 0.0625, LEI-801 6.25, LEI-800 6.25 µM, average ± SD of 3 replicates; for DAPI intensity / SYTOX Green intensity: standardized to DMSO control
Procedure: Overnight E. coli BW25113 cultures were diluted 1:100 in fresh LB medium in a 100 ml Erlenmeyer flask and incubated at 120 r.p.m. and 37 °C. When OD600 >0.2, the cultures were diluted to OD600 of 0.1 in fresh LB medium with a final volume of 200 µl in a 2 ml Eppendorf tube. The appropriate antibiotic or control treatment was applied and the samples were incubated at 200 r.p.m. and 30 °C for 2 h. Subsequently, 4,6-diamidino-2-phenylindole (DAPI) (2 µg ml^−1), FM4-64 (2 µg ml^−1) and SYTOX Green (0.5 µM) were added to reach the desired concentration and the samples were incubated a further 10 min. The samples were then centrifuged at 3,300g for 50 s and the pellets resuspended in half the original volume. From this suspension, 5 µl was spotted onto a 2.0% agarose pad for microscopy.
Microscopy was performed on a Zeiss Axio Observer Z1/7 inverted microscope.
For the qualitative assessment of the bacterial morphology, the acquired images were first pre-processed in ImageJ (v1.53m)[47]. Thereafter the brightness and contrast were adjusted to allow the clearest visual inspection of the particular phenotype. For the quantitative BCP, DIC images were first pre-processed and then a random forest classifier was trained with Illastik (v1.3.3)[48] to generate a segmented image. These binary masks were then combined together with the original DIC image and processed with the ImageJ plugin MicrobeJ (v 5.13l)[49]. MicrobeJ generated cell outlines and performed measurements on cell shape accordingly. The recorded cell outlines produced by MicrobeJ were exported and used as a guide to characterize the DNA shape within each bacterium using a custom-made ImageJ macro (Appendix II). DAPI and SYTOX Green intensity were measured on raw images in a similar manner. Then, by hand, polygons were drawn that excluded bacteria to determine background intensity. After background correction the intensity was standardized to the DMSO control within the same biological replicate. For PCA, the BCP assay was executed for three independently biological replicates. During each experiment, images were acquired until 24 or more bacteria in total had been observed. Following feature extraction for each replicate, principal component analysis was performed using GraphPad Prism (v9.0.0) using multiple variable analysis with standardized data. Principal components (PCs) were selected based on the per cent of total explained variance (minimum 80%).

[1] = Escherichia coli, W3110, WT, broth microdilution, read-out: MIC E. coli W3110
[2] = Klebsiella pneumoniae, ATCC29665, broth microdilution
[3] = WT, broth microdilution, read-out: MIC E. coli W3110
[4] = Escherichia coli, W3110, follow-up of the 12 library hits, read-out: MIC E. coli

**Q.** For `O=S(=O)(NCCNCc1ccc(-c2ccncc2)cc1)c1cccc2cnccc12` [Compound 65], which MIC (E. coli W3110; [1]) is on record?
**A.** 12.5 µM (≈ 5.23 µg/mL)

**Q.** And the MIC (K. pneumoniae ATCC 29665; [2])?
**A.** 25 µM (≈ 10.5 µg/mL)

**Q.** For `Nc1cc2c(S(=O)(=O)NCCNCc3ccc(-c4cccnc4)cc3)cccc2cn1` [Compound 55], which MIC (E. coli W3110; [1]) is on record?
**A.** > 50 µM

**Q.** What about the MIC (E. coli W3110; [3]) of the same compound?
**A.** >50 µM

**Q.** What about the MIC (K. pneumoniae ATCC 29665; [2]) of the same compound?
**A.** > 50 µM

**Q.** And the MIC (K. pneumoniae ATCC 29665; broth microdilution)?
**A.** >50 µM

**Q.** `O=S(=O)(NCCNC/C=C/c1ccccc1-c1ccc2c(c1)OCO2)c1cccc2cnccc12` [Compound 97i] was tested. Which MIC (E. coli W3110; [4]) did it give?
**A.** > 50 µM

**Q.** What does the source list for `COc1ccccc1-c1ccc(CNCCNS(=O)(=O)c2cccc3cnccc23)cc1` [Compound 73]?
**A.** MIC (E. coli W3110; [1]): 25 µM (≈ 11.2 µg/mL); MIC (K. pneumoniae ATCC 29665; [2]): 50 µM (≈ 22.4 µg/mL)

**Q.** What does the source list for `O=S(=O)(NCCNCc1ccc(-c2ccc(F)cc2)nc1)c1cccc2cnccc12` [Compound 82]?
**A.** MIC (E. coli W3110; [1]): > 50 µM; MIC (E. coli W3110; [3]): >50 µM; MIC (K. pneumoniae ATCC 29665; [2]): > 50 µM; MIC (K. pneumoniae ATCC 29665; broth microdilution): >50 µM

**Q.** What does the source list for `O=S(=O)(NCCNCc1ccc(-c2cccnc2)cc1)c1cccc2ccccc12` [Compound 47]?
**A.** MIC (E. coli W3110; [1]): 25 µM (≈ 10.4 µg/mL); antimicrobial activity (E. coli W3110): fourfold reduced activity; MIC (K. pneumoniae ATCC 29665; [2]): > 50 µM; MIC (K. pneumoniae ATCC 29665; broth microdilution): 50 µM (≈ 20.9 µg/mL)

**Q.** Which results are given for `O=C(NCCNS(=O)(=O)c1cccc2cnccc12)c1ccc(-c2cccnc2)cc1` [Compound 93]?
**A.** MIC (E. coli W3110; [1]): > 50 µM; MIC (E. coli W3110; [3]): >50 µM; antimicrobial activity (E. coli W3110): abolished all activity; MIC (K. pneumoniae ATCC 29665; [2]): > 50 µM; MIC (K. pneumoniae ATCC 29665; broth microdilution): >50 µM

**Q.** What does the source list for `O=S(=O)(NCCNCc1ccc(-c2cccnc2)cc1)c1ccccc1` [Compound 48]?
**A.** MIC (E. coli W3110; [1]): > 50 µM; MIC (E. coli W3110; [3]): >50 µM; antimicrobial activity (E. coli W3110): lost all activity; MIC (K. pneumoniae ATCC 29665; [2]): > 50 µM; MIC (K. pneumoniae ATCC 29665; broth microdilution): >50 µM

**Q.** With `O=S(=O)(NCCNC/C=C/c1ccc(-c2cccnc2)cc1)c1ccc2cn[nH]c2c1` [SG171] as the compound, how does the MIC (E. coli W3110; [4]) read?
**A.** > 50 µM

**Q.** With `O=S(=O)(NCCNCc1ccc(-c2ccc(F)nc2)nc1)c1cccc2cnccc12` [Compound 81] as the compound, how does the MIC (E. coli W3110; [1]) read?
**A.** > 50 µM

**Q.** What about the MIC (E. coli W3110; [3]) of the same compound?
**A.** >50 µM

**Q.** And the MIC (K. pneumoniae ATCC 29665; [2])?
**A.** > 50 µM

**Q.** What about the MIC (K. pneumoniae ATCC 29665; broth microdilution) of the same compound?
**A.** >50 µM

**Q.** What does the source list for `CO[C@H]1/C=C/O[C@@]2(C)Oc3c(C)c(O)c4c(O)c(c(/C=N/N5CCN(C)CC5)c(O)c4c3C2=O)NC(=O)/C(C)=C\C=C\[C@H](C)[C@H](O)[C@@H](C)[C@@H](O)[C@@H](C)[C@H](OC(C)=O)[C@@H]1C` [RIF, rifampicin, reference compound]?
**A.** DAPI circularity (E. coli BW25113): 0.637 ± 0.019; DAPI nucleoid area (E. coli BW25113): 4.992 ± 0.606; DAPI nucleoids (E. coli BW25113): 1.120 ± 0.069; DAPI perimeter (E. coli BW25113): 9.927 ± 0.636; DAPI roundness (E. coli BW25113): 0.408 ± 0.029; DAPI solidity (E. coli BW25113): 0.918 ± 0.003; DAPI total area (E. coli BW25113): 5.402 ± 0.548; DIC area (E. coli BW25113): 5.883 ± 0.716; DIC circularity (E. coli BW25113): 0.642 ± 0.053; DIC curvature (E. coli BW25113): 0.092 ± 0.018; DIC feret (E. coli BW25113): 4.608 ± 0.076; DIC length (E. coli BW25113): 4.635 ± 0.073; DIC roundness (E. coli BW25113): 0.370 ± 0.047; DIC sinuosity (E. coli BW25113): 1.017 ± 0.003; DIC solidity (E. coli BW25113): 0.956 ± 0.014; DIC width (E. coli BW25113): 1.327 ± 0.161; Decondensation (E. coli BW25113): 0.922 ± 0.075; DIC angularity (E. coli BW25113): 0.101 ± 0.016; DAPI intensity (E. coli BW25113): 0.704 ± 0.260; SYTOX Green intensity (E. coli BW25113): 2.120 ± 0.434

**Q.** `O=S(=O)(NCCNCc1ccc(-c2ccccc2Cl)cc1)c1cccc2cnccc12` [Compound 70] was tested. Which MIC (E. coli W3110; [1]) did it give?
**A.** 25 µM (≈ 11.3 µg/mL)

**Q.** And the MIC (K. pneumoniae ATCC 29665; [2])?
**A.** 50 µM (≈ 22.6 µg/mL)

**Q.** How did the MIC (E. coli W3110; [4]) turn out when `O=S(=O)(NCCNCCc1ccc(-c2cccnc2)cc1)c1cccc2cnccc12` [BB077] was run?
**A.** > 50 µM

**Q.** How did the MIC (E. coli W3110; [4]) turn out when `Nc1cc2c(S(=O)(=O)NCCNC/C=C/c3ccc(-c4cccnc4)cc3)cccc2cn1` [SG181] was run?
**A.** > 50 µM

**Q.** With `CN(C)CCCN1c2ccccc2Sc2ccc(Cl)cc21` [MB053] as the compound, how does the MIC (E. coli W3110; Escherichia coli, W3110, read-out: MIC E. coli) read?
**A.** > 50 µM

**Q.** Which results are given for `CC1(C)S[C@@H]2[C@H](NC(=O)[C@H](N)c3ccccc3)C(=O)N2[C@H]1C(=O)O` [AMP, ampicillin, reference compound]?
**A.** DAPI circularity (E. coli BW25113): 0.173 ± 0.043; DAPI nucleoid area (E. coli BW25113): 9.445 ± 2.853; DAPI nucleoids (E. coli BW25113): 2.583 ± 0.910; DAPI perimeter (E. coli BW25113): 30.886 ± 6.792; DAPI roundness (E. coli BW25113): 0.108 ± 0.020; DAPI solidity (E. coli BW25113): 0.603 ± 0.036; DAPI total area (E. coli BW25113): 19.710 ± 4.300; DIC area (E. coli BW25113): 31.597 ± 3.284; DIC circularity (E. coli BW25113): 0.144 ± 0.015; DIC curvature (E. coli BW25113): 0.024 ± 0.004; DIC feret (E. coli BW25113): 26.883 ± 3.012; DIC length (E. coli BW25113): 27.774 ± 3.16; DIC perimeter (E. coli BW25113): 56.849 ± 6.297; DIC roundness (E. coli BW25113): 0.066 ± 0.008; DIC sinuosity (E. coli BW25113): 1.033 ± 0.002; DIC solidity (E. coli BW25113): 0.538 ± 0.044; DIC width (E. coli BW25113): 1.143 ± 0.051; Decondensation (E. coli BW25113): 0.619 ± 0.078; DIC angularity (E. coli BW25113): 0.069 ± 0.009; DAPI intensity (E. coli BW25113): 1.490 ± 0.410; SYTOX Green intensity (E. coli BW25113): 1.901 ± 0.246

**Q.** For `Nc1ccc2c(N3CCC(COc4ccccn4)CC3)ncnc2n1` [AJ358], which MIC (E. coli W3110; [4]) is on record?
**A.** > 50 µM

**Q.** `Nc1ccccc1S(=O)(=O)NCCNC/C=C/c1ccc(-c2cccnc2)cc1` [BB064] was tested. Which MIC (E. coli W3110; [4]) did it give?
**A.** > 50 µM
